{
  "source": "PubChem BioAssay (NCI)",
  "assay_in_all_cases": "growth of human tumour cells (NCI), 48 h",
  "key": {"[1]": {"test_system": "UACC-62 melanoma"}, "[2]": {"test_system": "A549 NSCLC"}, "[3]": {"test_system": "HCC-2998 colon"}, "[4]": {"test_system": "SF-295 CNS"}, "[5]": {"test_system": "SK-MEL-2 melanoma"}, "[6]": {"test_system": "HOP-92 NSCLC"}, "[7]": {"test_system": "NCI-H460 lung"}, "[8]": {"test_system": "OVCAR-3 ovarian"}, "[9]": {"test_system": "NCI-H23 lung"}, "[10]": {"test_system": "COLO 205 colon"}, "[11]": {"test_system": "SN12C renal"}, "[12]": {"test_system": "SF-539 CNS"}, "[13]": {"test_system": "OVCAR-8 ovarian"}, "[14]": {"test_system": "SW-620 colon"}, "[15]": {"test_system": "SK-OV-3 ovarian"}, "[16]": {"test_system": "K-562 leukemia"}, "[17]": {"test_system": "NCI/ADR-RES ovarian"}, "[18]": {"test_system": "SNB-19 CNS"}, "[19]": {"test_system": "HS 578T breast"}, "[20]": {"test_system": "HL-60(TB) leukemia"}, "[21]": {"test_system": "OVCAR-5 ovarian"}, "[22]": {"test_system": "UACC-257 melanoma"}, "[23]": {"test_system": "HCT-15 colon"}, "[24]": {"test_system": "LOX IMVI melanoma"}, "[25]": {"test_system": "SK-MEL-28 melanoma"}, "[26]": {"test_system": "MDA-N"}, "[27]": {"test_system": "786-0 renal"}, "[28]": {"test_system": "SF-268 CNS"}, "[29]": {"test_system": "HOP-62 NSCLC"}, "[30]": {"test_system": "U251 CNS"}, "[31]": {"test_system": "BT-549 breast"}, "[32]": {"test_system": "HCT-116 colon"}, "[33]": {"test_system": "SNB-75 CNS"}, "[34]": {"test_system": "KM12 colon"}, "[35]": {"test_system": "UO-31 renal"}, "[36]": {"test_system": "RPMI-8226 leukemia"}, "[37]": {"test_system": "MDA-MB-231 breast"}, "[38]": {"test_system": "EKVX NSCLC"}, "[39]": {"test_system": "OVCAR-4 ovarian"}, "[40]": {"test_system": "IGROV1 ovarian"}, "[41]": {"test_system": "HT29 colon"}, "[42]": {"test_system": "TK-10 renal"}, "[43]": {"test_system": "NCI-H522 lung"}, "[44]": {"test_system": "SR leukemia"}, "[45]": {"test_system": "DU-145 prostate"}, "[46]": {"test_system": "CCRF-CEM leukemia"}, "[47]": {"test_system": "CAKI-1 renal"}, "[48]": {"test_system": "T-47D breast"}, "[49]": {"test_system": "SK-MEL-5 melanoma"}, "[50]": {"test_system": "MDA-MB-435"}, "[51]": {"test_system": "MOLT-4 leukemia"}, "[52]": {"test_system": "MCF7 breast"}, "[53]": {"test_system": "ACHN renal"}, "[54]": {"test_system": "PC-3 prostate"}, "[55]": {"test_system": "M14 melanoma"}, "[56]": {"test_system": "NCI-H226 lung"}, "[57]": {"test_system": "RXF 393 renal"}},
  "note": "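Compound exposure: 48 hours, 5 concentrations, 96-well plates. TGI denotes the concentration required for complete inhibition of growth.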",
  "data": [
    {"compound": "O=C1OC(c2ccccc2)N/C1=C\\c1ccc2c(c1)OCO2", "note": "(configuration not stated)", "values": [
      {"measurement": "TGI", "setting": "[1]", "result": "> 100", "unit": "µM"},
      {"measurement": "TGI", "setting": "[2]", "result": "> 100", "unit": "µM"},
      {"measurement": "TGI", "setting": "[3]", "result": "> 100", "unit": "µM"},
      {"measurement": "TGI", "setting": "[4]", "result": "> 100", "unit": "µM"},
      {"measurement": "TGI", "setting": "[5]", "result": "> 100", "unit": "µM"},
      {"measurement": "TGI", "setting": "[6]", "result": "> 100", "unit": "µM"},
      {"measurement": "TGI", "setting": "[7]", "result": "> 100", "unit": "µM"},
      {"measurement": "TGI", "setting": "[8]", "result": "> 100", "unit": "µM"},
      {"measurement": "TGI", "setting": "[9]", "result": "> 100", "unit": "µM"},
      {"measurement": "TGI", "setting": "[10]", "result": "> 100", "unit": "µM"},
      {"measurement": "TGI", "setting": "[11]", "result": "> 100", "unit": "µM"},
      {"measurement": "TGI", "setting": "[12]", "result": "> 31.6", "unit": "µM"},
      {"measurement": "TGI", "setting": "[13]", "result": "> 100", "unit": "µM"},
      {"measurement": "TGI", "setting": "[14]", "result": "> 100", "unit": "µM"},
      {"measurement": "TGI", "setting": "[15]", "result": "> 100", "unit": "µM"},
      {"measurement": "TGI", "setting": "[16]", "result": "> 100", "unit": "µM"},
      {"measurement": "TGI", "setting": "[17]", "result": "> 100", "unit": "µM"},
      {"measurement": "TGI", "setting": "[18]", "result": "> 100", "unit": "µM"},
      {"measurement": "TGI", "setting": "[19]", "result": "> 100", "unit": "µM"},
      {"measurement": "TGI", "setting": "[20]", "result": 0.684, "unit": "µM"},
      {"measurement": "TGI", "setting": "[21]", "result": "> 100", "unit": "µM"},
      {"measurement": "TGI", "setting": "[22]", "result": "> 100", "unit": "µM"},
      {"measurement": "TGI", "setting": "[23]", "result": "> 100", "unit": "µM"},
      {"measurement": "TGI", "setting": "[24]", "result": "> 100", "unit": "µM"},
      {"measurement": "TGI", "setting": "[25]", "result": "> 100", "unit": "µM"},
      {"measurement": "TGI", "setting": "[26]", "result": "> 100", "unit": "µM"},
      {"measurement": "TGI", "setting": "[27]", "result": "> 100", "unit": "µM"},
      {"measurement": "TGI", "setting": "[28]", "result": "> 100", "unit": "µM"},
      {"measurement": "TGI", "setting": "[29]", "result": "> 100", "unit": "µM"},
      {"measurement": "TGI", "setting": "[30]", "result": "> 100", "unit": "µM"},
      {"measurement": "TGI", "setting": "[31]", "result": "> 100", "unit": "µM"},
      {"measurement": "TGI", "setting": "[32]", "result": "> 100", "unit": "µM"},
      {"measurement": "TGI", "setting": "[33]", "result": "> 100", "unit": "µM"},
      {"measurement": "TGI", "setting": "[34]", "result": "> 95.5", "unit": "µM"},
      {"measurement": "TGI", "setting": "[35]", "result": "> 100", "unit": "µM"},
      {"measurement": "TGI", "setting": "[36]", "result": 59.9, "unit": "µM"},
      {"measurement": "TGI", "setting": "[37]", "result": "> 100", "unit": "µM"},
      {"measurement": "TGI", "setting": "[38]", "result": "> 100", "unit": "µM"},
      {"measurement": "TGI", "setting": "[39]", "result": "> 88", "unit": "µM"},
      {"measurement": "TGI", "setting": "[40]", "result": "> 100", "unit": "µM"},
      {"measurement": "TGI", "setting": "[41]", "result": "> 100", "unit": "µM"},
      {"measurement": "TGI", "setting": "[42]", "result": "> 100", "unit": "µM"},
      {"measurement": "TGI", "setting": "[43]", "result": "> 100", "unit": "µM"},
      {"measurement": "TGI", "setting": "[44]", "result": 63.9, "unit": "µM"},
      {"measurement": "TGI", "setting": "[45]", "result": "> 100", "unit": "µM"},
      {"measurement": "TGI", "setting": "[46]", "result": 99.6, "unit": "µM"},
      {"measurement": "TGI", "setting": "[47]", "result": "> 100", "unit": "µM"},
      {"measurement": "TGI", "setting": "[48]", "result": "> 100", "unit": "µM"},
      {"measurement": "TGI", "setting": "[49]", "result": "> 100", "unit": "µM"},
      {"measurement": "TGI", "setting": "[50]", "result": "> 100", "unit": "µM"},
      {"measurement": "TGI", "setting": "[51]", "result": "> 100", "unit": "µM"},
      {"measurement": "TGI", "setting": "[52]", "result": "> 100", "unit": "µM"},
      {"measurement": "TGI", "setting": "[53]", "result": "> 100", "unit": "µM"},
      {"measurement": "TGI", "setting": "[54]", "result": "> 100", "unit": "µM"},
      {"measurement": "TGI", "setting": "[55]", "result": "> 100", "unit": "µM"},
      {"measurement": "TGI", "setting": "[56]", "result": "> 100", "unit": "µM"},
      {"measurement": "TGI", "setting": "[57]", "result": "> 100", "unit": "µM"}
    ]}
  ]
}
